Measured values published in PMC8213153 (PLoS ONE, 2021).
≈ marks a conversion by molar mass, not a printed value. Like-named read-outs stand apart in the source and are kept apart here.

Tests used:
Format in all cases: cell-based
[1] = Cytotoxicity (MTT) assay of single and dual combinatory drugs; conditions: human; for CC50 at 48 h: CompuSyn, n = 3, read-out: CC50
Protocol: Each tablet containing drugs was triturated and mixed until homogenous. Approximately 50 mg equivalent mass of drugs were weighed and added to dimethyl sulfoxide in order to solubilize the drugs. The suspension was sonicated in a water bath for 15 minutes before being added to Rosewell Park Memorial Institute (RPMI) media, sonicated again and vortexed to mix it until homogenous. The suspension was then filtered through a polycarbonate membrane with a pore size of 0.45 μm and then a pore size of 0.22 μm under aseptic conditions. The filtrate was mixed with 10% foetal bovine serum and penicillin streptomycin before being vortexed to produce a homogenous mixture to be used as a stock solution. The samples were prepared by diluting the stock solution of each drug with RPMI complete media at an appropriate level of dilution to produce a determined concentration. The dual combinatory drugs mixtures were prepared by mixing appropriate amounts of two drug stock solutions in order to produce a final concentration at the required level. The combinatory drugs were evaluated at both constant and non-constant ratios to evaluate their effects on the cytotoxicity, including; antagonistic, synergistic, or additive. A constant ratio of the mixture was achieved by adding drug solutions at the same ratio, thereby increasing each drug concentration, to produce dose escalation. In contrast, at a non-constant ratio, a fixed determined concentration of drug was added to increased doses of other drug solution in order to produce different levels of drug concentration.
The cytotoxic concentration (CC50) of drugs was performed by means of MTT assay at the Stem Cell Research and Development Center, Universitas Airlangga using human umbilical cord mesenchymal stem cells which had been obtained from human placenta tissue as approved by the Ethical Committee of Universitas Airlangga Hospital (Certificate number 101/KEH/2019 dated January 10, 2019). The cells were prepared as the primary cell culture and used for the cytotoxicity assay because of their sensitivity to chemicals. Cells were seeded into 96-well microplates at a concentration of 1x10^3 cells/well in 100 μL Alpha Minimum Essentials Medium (α-MEM, Gibco, USA) supplemented with 10% foetal bovine serum, 1% penicillin-streptomycin and 1% amphotericin-B. The plates were then incubated in a CO2 incubator at 37°C with 5% CO2 for 24 hours, at which point, the supernatant was replaced with α-MEM containing drugs at each concentration and incubated for a further 48 hours. Approximately 25μL of 3-(4,5-Dimethylthiazol-2-yl)-2,5-diphenyl tetrazolium-bromide (MTT) reagent at a concentration of 5mg/mL was subsequently added to each well and incubated for four hours at 37°C with 5% CO2. Purple formazan crystals were formed and observed under an inverted microscope. Dimethyl sulfoxide was added to each well with the complete solubilisation of formazan crystals subsequently being observed. The greater the number of formazan crystals formed, the lower the toxicity of the samples which were read for optical density of formazan using a multi reader at a measurement wavelength of 595 nm (Promega Glomax, USA). The CC50 value was analyzed by CompuSyn software (the ComboSyn Inc., accessed from www.combosyn.com).
In this study, the cytotoxicity assay was evaluated for single and dual combinatory drugs during a period of 48 hours of drug incubation. This assay was intended to evaluate the toxicity of dual combinatory drugs on normal cells. The combination ratios were calculated taking into consideration the usual therapeutic doses and plasma peak concentrations of the drugs. To determine this cytotoxicity, the drugs were mixed at both constant and non-constant ratios.

SARS-CoV-2 virus = assay: microbe, parasite or virus in culture; conditions: for IC50: Severe acute respiratory syndrome coronavirus 2, Vero
IL-10 = IL-10 level of virus-infected Vero cells (ELISA)
Protocol: (§1) To enable measurement of IL-6, IL-10 and TNF-α levels, the culture medium of the treated cells was collected in sterile micro-tubes and centrifuged at 3,500 rpm for 20 minutes. The supernatants were carefully collected and diluted with aquadest at a 1:5 volume ratio and vortexed until homogenous. The samples were deposited onto a well-plate, added to ELISA reagents (Bioassay Technology Laboratory, Shanghai, China), and incubated at 37°C for 60 minutes. Reagent substrate solution was then added to the well and incubated for ten minutes at 37°C. The samples were measured for antigen concentration using the optical density (OD) plotted into the standard curves of IL-6, IL-10, and TNF-α.

IL-6 = IL-6 level of virus-infected Vero cells (ELISA)
Protocol: as §1

TNF-α = TNF-α level of virus-infected Vero cells (ELISA)
Protocol: as §1

[2] = HYDROXYCHLOROQUINE-AZITHROMYCIN series, read-out: Cell Viability (%)
[3] = HYDROXYCHLOROQUINE-DOXYCYCLINE series, read-out: Cell viability (%)
[4] = HYDROXYCHLOROQUINE-FAVIPIRAVIR series, read-out: Cell Viability (%)
[5] = HYDROXYCHLOROQUINE-LOPIRITO series, read-out: Cell Viability (%)

Q: With CCN(CCO)CCCC(C)Nc1ccnc2cc(Cl)ccc12 (stereo not shown) [HCQ, Hydroxychloroquine] as the compound, how does the CC50 at 48 h ([1]; HCQ-AZI experiment (Fig 7)) read?
A: 5940 µg/mL

Q: And the CC50 at 48 h ([1]; HCQ-DOXY experiment (Fig 8))?
A: 1500 µg/mL

Q: What about the CC50 at 48 h ([1]; HCQ-FAVI experiment (Fig 10)) of the same compound?
A: 11.8 µg/mL

Q: And the CC50 at 48 h ([1]; HCQ-LOPIRITO experiment (Fig 11))?
A: 2.51 µg/mL

Q: And the viability at 48 h, 0.2 μg/mL [1, 2]?
A: 85.6%

Q: And the viability at 48 h, 2 μg/mL [1, 2]?
A: 91%

Q: What about the viability at 48 h, 10 μg/mL [1, 2] of the same compound?
A: 94.4%

Q: What about the viability at 48 h, 100 μg/mL [1, 2] of the same compound?
A: 46.6%

Q: And the viability at 48 h, 400 μg/mL [1, 2]?
A: 68.6%

Q: And the viability at 48 h, 0.2 μg/mL [1, 3]?
A: 97.1%

Q: And the viability at 48 h, 2 μg/mL [1, 3]?
A: 97%

Q: And the viability at 48 h, 10 μg/mL [1, 3]?
A: 98.9%

Q: What about the viability at 48 h, 100 μg/mL [1, 3] of the same compound?
A: 62.1%

Q: And the viability at 48 h, 400 μg/mL [1, 3]?
A: 56.9%

Q: And the viability at 48 h, 0.2 μg/mL [1, 4]?
A: 51.5%

Q: And the viability at 48 h, 2 μg/mL [1, 4]?
A: 81.9%

Q: And the viability at 48 h, 10 μg/mL [1, 4]?
A: 93.7%

Q: What about the viability at 48 h, 100 μg/mL [1, 4] of the same compound?
A: 13.3%

Q: And the viability at 48 h, 400 μg/mL [1, 4]?
A: 9.5%

Q: And the viability at 48 h, 0.2 μg/mL [1, 5]?
A: 35.9%

Q: What about the viability at 48 h, 2 μg/mL [1, 5] of the same compound?
A: 61.7%

Q: And the viability at 48 h, 10 μg/mL [1, 5]?
A: 81.4%

Q: What about the viability at 48 h, 100 μg/mL [1, 5] of the same compound?
A: 33%

Q: And the viability at 48 h, 400 μg/mL [1, 5]?
A: 7.4%

Q: What about the “Virus Titer” value (SARS-CoV-2 virus; 1 μg/mL, 24-h) of the same compound?
A: 38.64 viral protein fg/mL

Q: And the “Virus Titer” value (SARS-CoV-2 virus; 1 μg/mL, 72-h)?
A: 37.69 viral protein fg/mL

Q: And the “Virus Titer” value (SARS-CoV-2 virus; 15 μg/mL, 48-h)?
A: 37.86 viral protein fg/mL

Q: What about the “Drug concentration that produced an undetected virus copy number” value (SARS-CoV-2 virus; MoI 0.04, at 24, 48, and/or 72 hours' incubation) of the same compound?
A: 37.5 µg/mL

Q: And the IC50 (SARS-CoV-2 virus; 24h, MoI 0.04)?
A: 9.5 µg/mL (≈ 28.3 µM)

Q: And the IC50 (SARS-CoV-2 virus; 48h, MoI 0.04)?
A: 4.7 µg/mL (≈ 14 µM)

Q: And the IC50 (SARS-CoV-2 virus; 72h, MoI 0.04)?
A: 1.4 µg/mL (≈ 4.17 µM)

Q: What about the “Results (virus detection)” value (SARS-CoV-2 virus; at the drug concentration of the same line of Table 4, MoI 0.04) of the same compound?
A: 48, 72h virus undetected

Q: And the IL-10 (IL-10; 1 μg/mL, 24-h)?
A: 15.36 ± 0.75 pg/mL

Q: What about the IL-10 (IL-10; 1 μg/mL, 48-h) of the same compound?
A: 96.36 ± 0.71 pg/mL

Q: What about the IL-10 (IL-10; 1 μg/mL, 72-h) of the same compound?
A: 329.79 ± 0.08 pg/mL

Q: And the IL-10 (IL-10; 15 μg/mL, 24-h)?
A: 32.43 ± 1.19 pg/mL

Q: What about the IL-10 (IL-10; 15 μg/mL, 72-h) of the same compound?
A: 258.02 ± 9.73 pg/mL

Q: And the IL-10 (IL-10; 15 μg/mL, 48h)?
A: ↗↗ (15 μg/mL; 48h)

Q: What about the “IL-10 levels (in words)” value (IL-10; Table 5) of the same compound?
A: increased

Q: What about the IL-6 (IL-6; 1 μg/mL, 24-h) of the same compound?
A: 15.91 ± 0.99 ng/L

Q: What about the IL-6 (IL-6; 1 μg/mL, 48-h) of the same compound?
A: 36.41 ± 2.01 ng/L

Q: And the IL-6 (IL-6; 1 μg/mL, 72-h)?
A: 47.64 ± 2.15 ng/L

Q: What about the IL-6 (IL-6; 1 μg/mL, 24h) of the same compound?
A: ↘↘ (1 μg/mL; 24h)

Q: And the IL-6 (IL-6; 15 μg/mL, 24-h)?
A: 15.91 ± 1.41 ng/L

Q: What about the IL-6 (IL-6; 15 μg/mL, 48-h) of the same compound?
A: 36.41 ± 0.89 ng/L

Q: What about the IL-6 (IL-6; 15 μg/mL, 72-h) of the same compound?
A: 39.80 ± 0.48 ng/L

Q: And the “IL-6 (in words)” value (IL-6; Table 5)?
A: reduced

Q: And the TNF-α (TNF-α; 1 μg/mL, 24-h)?
A: 4.21 ± 0.31 pg/mL

Q: What about the TNF-α (TNF-α; 1 μg/mL, 72-h) of the same compound?
A: 548.17 ± 1.44 pg/mL

Q: What about the TNF-α (TNF-α; 15 μg/mL, 72-h) of the same compound?
A: 411.10 ± 0.18 pg/mL

Q: And the TNF-α (TNF-α; 24, 48, and 72 hours, cell without concentration)?
A: No effects

Q: And the “TNF-α levels (in words)” value (TNF-α; Table 5)?
A: no effects
